In the assay the target is T1, chimpanzee GPR105 protein (Pan troglodytes, UniProt A0A2J8P2M1).
T1 construct: expressed in transfected cells
T1 sequence (A0A2J8P2M1 1-338): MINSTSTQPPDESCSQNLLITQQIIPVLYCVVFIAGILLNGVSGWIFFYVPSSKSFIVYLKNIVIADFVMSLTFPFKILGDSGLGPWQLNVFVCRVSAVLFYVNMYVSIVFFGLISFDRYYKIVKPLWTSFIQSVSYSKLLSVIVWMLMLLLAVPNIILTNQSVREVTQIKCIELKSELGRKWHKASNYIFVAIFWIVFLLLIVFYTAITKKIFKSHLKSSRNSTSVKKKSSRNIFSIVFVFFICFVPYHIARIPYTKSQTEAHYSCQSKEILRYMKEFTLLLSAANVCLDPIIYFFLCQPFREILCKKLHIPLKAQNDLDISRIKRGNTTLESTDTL
Description: Cell-Binding Assay: FLIPR calcium signaling in HEK/GPR105/Gqi5 cells, inhibition of UDP-glucose agonist. In kind it is cell-based. The note with it: HEK cells expressing chimpanzee GPR105 and Gqi5; UDP-glucose agonist at EC80; inhibition of Ca2+ signaling by FLIPR. On the procedure:
A stable HEK clonal cell line expressing the chimpanzee GPR105 protein and the chimeric G protein Gqi5 was developed. The chimeric Gqi5 forces the coupling of GPR105 through the Gq (calcium) pathway and allows for monitoring of calcium signaling using a calcium binding fluorescent dye and the FLIPR (fluorometric imaging plate reader, MDS Sciex). 12,500 HEK/GPR105/Gqi5 expressing cells were plated in 25 μL Dulbecco's Modified Eagle's Medium (DMEM) containing 10% fetal bovine serum (FBS) onto 384-well, poly-D-lysine coated plates. Cells were incubated overnight at 37° C. and 5% CO2 to form a monolayer. On the following day, 30 μl, of fluorescent no-wash dye was added to the cell monolayer and the plate was incubated for […] at 37° C., 5% CO2. […] of compound in 100% DMSO was added to cell/dye incubation using acoustic dispensing (Echo™, Labcyte). Following a 20 minute incubation of compound at room temperature, 6.25 μL of UDP-glucose agonist (at EC80) in Hank's Balanced Salt Solution (HBSS) containing 20 mM Hepes was added to cells and Ca^2+ signaling was monitored by FLIPR. Quantitation of the % inhibition of Ca^2+ signaling by antagonist was calculated using the maximum fluorescent signal detected. IC50's for the compounds of structural formula (I) were calculated as follows:
a.) Basal=incubation of cells+DMSO+Buffer; b.) EC80=incubation of cells of DMSO+agonist to achieve 80% maximum stimulation of calcium release; c.) Compound=incubation of cells+antagonist in DMSO+EC80 agonist; d.) Calcium release monitored by Fluorescence (RFU relative fluorescence units) using the FLIPR; e.) The percentage of inhibition was calculated according to the equation: (1−(compound sample−Basal)/(EC80−Basal))×100; f.) The percentage of inhibition at each dose was plotted, the Four Parameter Logistic Fit performed to draw the curve and the IC50 is the compound dose where the % inhibition=50%.
With `O=C(O)c1cc(-c2ccc(C(O)C(F)(F)F)cc2)c2ccc(-c3ccc(C(F)(F)F)cc3)cc2c1` (centres unmarked), the IC50 amounted to 13 nM. The value for `CS(=O)(=O)c1cc(-c2cc(C(=O)O)cc3cc(-c4ccc(OC(F)(F)F)cc4)ccc23)cs1` was 23.9 nM; that for `Cc1ccc(Cl)c(COc2ccc3c(-c4ccsc4)cc(C(=O)O)cc3c2)c1F` was 20.3 nM. For `O=C(O)c1cc(-c2ccsc2)c2ccc(OCc3c(F)cccc3Cl)cc2c1` the value was 12.5 nM.

Regarding `Cc1cccc(C)c1COc1ccc2c(-c3ccc(C=O)cc3)cc(C(=O)O)cc2c1`, the concentration for half-maximal inhibition (IC50) was found to be 22.5 nM. Turning to `O=C(O)c1cc(-c2ccsc2)c2ccc(OCc3c(F)cccc3F)cc2c1`, the half-maximal inhibitory concentration (IC50) turned out to be 22.6 nM. For `Cc1cccc(C)c1COc1ccc2c(-c3ccc4c(c3)OCO4)cc(C(=O)O)cc2c1` the value was 19.4 nM; for `O=C(O)c1cc2cc(-c3ccc(C(F)(F)F)cc3)ccc2c(-c2ccc([C@@H](O)C(F)F)cc2)c1F`, 24.8 nM. As for `Cc1cccc(C)c1COc1ccc2c(OCc3ccccc3)cc(C(=O)O)cc2c1`, the IC50 was 21.2 nM. The value for `O=C(O)c1cc(-c2ccccc2)c2ccc(OCc3c(Cl)ccc(Cl)c3Cl)cc2c1` was 21.7 nM; that for `O=C(O)c1cc(-c2ccsc2)c2ccc(OCc3c(Br)cccc3Br)cc2c1` was 24.3 nM; that for `O=C(O)c1cc(-c2ccsc2)c2ccc(OCc3c(Cl)cncc3Cl)cc2c1` [drawing 30] was 15.1 nM. The value for `O=C(O)c1cc(-c2ccc(C3CCNCC3)cc2)c2ccc(-c3ccc(C(F)(F)F)cc3)cc2c1` was 2.2 nM; that for `O=C(O)c1cc(-c2ccsc2)c2ccc(OCc3cc(C(F)(F)F)ccc3Cl)cc2c1` was 26 nM. For `Cc1cccc(C)c1COc1ccc2c(-c3ccc(O)cc3)cc(C(=O)O)cc2c1`, the IC50 was found to be 18.4 nM. Regarding `C[S+]([O-])c1ccc(-c2cc(C(=O)O)cc3cc(-c4ccc(C(F)(F)F)cc4)ccc23)cc1` (centres unmarked), the 50% inhibitory concentration (IC50) was 13.9 nM. The value for `O=C(O)c1cc(-c2ccsc2)c2ccc(-c3ccc(OC(F)(F)F)cc3)cc2c1` was 12.7 nM; that for `Cc1cccc(C)c1COc1ccc2c(-c3ccc(S(C)(=O)=O)cc3)cc(C(=O)O)cc2c1` was 11.9 nM; that for `Cc1cccc(C)c1COc1ccc2c(-c3ccc(C(=O)O)cc3)cc(C(=O)O)cc2c1` was 11 nM. On to `O=C(O)c1cc(-c2ccsc2)c2ccc(OCc3c(Cl)cncc3Cl)cc2c1` [drawing 14], for which the half-maximal inhibitory concentration (IC50) is 7.5 nM. The value for `O=C(O)c1cc(-c2csc(C(O)C(F)F)c2)c2ccc(-c3ccc(C(F)(F)F)cc3)cc2c1` (centres unmarked) was 7.1 nM.

Turning to `CC(=O)c1ccc(-c2cc(C(=O)O)cc3cc(OCc4c(C)cccc4C)ccc23)cc1`, the IC50 was 17.5 nM. For `Cc1cc(F)cc(C)c1COc1ccc2c(-c3ccsc3)cc(C(=O)O)cc2c1` the value was 14.4 nM; for `O=C(O)c1cc(-c2ccc([C@@H](O)C(F)F)cc2)c2ccc(-c3ccc(F)cc3)cc2c1`, 14 nM; for `COc1ccccc1COc1cc(C(=O)O)cc2cc(OCc3c(C)cccc3C)ccc12`, 14.1 nM.

In the case of `O=C(O)c1cc(-c2ccc([C@@H](O)C(F)F)cc2)c2ccc(-c3ccc(C(F)(F)F)cc3)cc2c1`, the IC50 is 5.4 nM.

Take `O=C(O)c1cc(-c2ccc([C@@H](O)C(F)(F)F)cc2)c2ccc(-c3ccc(C(F)(F)F)cc3)cc2c1`: the IC50 worked out at 11.3 nM. The value for `O=C(O)c1cc(-c2ccsc2)c2ccc(OCc3c(F)cc(F)cc3F)cc2c1` was 10.5 nM; that for `O=C(O)c1cc(-c2ccc(-c3nnc[nH]3)cc2)c2ccc(-c3ccc(C(F)(F)F)cc3)cc2c1` was 13.3 nM; that for `O=C(O)c1cc(-c2ccc(C3(O)CCNCC3)cc2)c2ccc(-c3ccc(C(F)(F)F)cc3)cc2c1` was 6.3 nM.

On to `CS(=O)(=O)c1cc(-c2cc(C(=O)O)cc3cc(-c4ccc(C(F)(F)F)cc4)ccc23)cs1`, for which the concentration for half-maximal inhibition (IC50) amounted to 12.2 nM.

As for `O=C(O)c1cc2cc(-c3ccc(C(F)(F)F)cc3)ccc2c(-c2ccc([C@H](O)C(F)(F)F)cc2)c1F`, the IC50 is 25.5 nM. The value for `O=C(O)c1cc(-c2ccsc2)c2ccc(OCc3c(Cl)ccc(Cl)c3Cl)cc2c1` was 7.3 nM; that for `Cc1cccc(C)c1COc1ccc2c(-c3ccc(C(C)(C)O)cc3)cc(C(=O)O)cc2c1` was 16.1 nM; that for `O=C(O)c1cc(-c2ccsc2)c2ccc(OCc3c(Cl)cccc3Br)cc2c1` was 17.8 nM. The value for `Cc1ccc(C(F)(F)F)cc1COc1ccc2c(-c3ccsc3)cc(C(=O)O)cc2c1` was 16.8 nM.

`CSc1ccc(-c2ccc3c(-c4ccc([C@@H](O)C(F)F)cc4)cc(C(=O)O)cc3c2)cc1`: the IC50 is 12.4 nM. For `O=C(O)c1cc(-c2ccsc2)c2ccc(OCc3c(Cl)cccc3Cl)cc2c1` the value was 9.4 nM. The value for `Cc1cccc(C)c1COc1ccc2c(-c3ccsc3)cc(C(=O)O)cc2c1` was 16.3 nM. The value for `Cc1cccc(C)c1COc1ccc2c(-c3ccc(CO)cc3)cc(C(=O)O)cc2c1` was 16.6 nM; that for `O=C(O)c1cc(-c2ccc(-c3cn4cccnc4n3)cc2)c2ccc(-c3ccc(C(F)(F)F)cc3)cc2c1` was 3 nM.

The IC50 is the concentration that gives 50% inhibition.

These data come from US20100298347A1, “SUBSTITUTED 2-NAPHTHOIC ACIDS AS ANTAGONISTS OF GPR105 ACTIVITY” (MERCK FROSST CANADA LTD, priority 2007, published 2010).
